The values that follow are results of earlier work, collected in patent US10863763B2, “Prebiotic compositions and uses thereof” (priority 2013, dated 2020).

Read-outs that look alike come from different tables or passages of the source.

The conditions of data set [1]: enriched cereal bars, 2 day test period.
The conditions of data set [2]: heating at high temperatures for 60 min.
The conditions of data set [3]: 4 h 15 min after administration; 58 normal to slightly overweight women.
The conditions of data set [4]: 50% of patty fat replaced, v full fat patty.
Test in data set [5]: not given
The source holds these as a separate data set.

Test in data set [6]: not given
This is another data set of the same source.

Test in data set [7]: not given
This is another data set of the same source.

For data set [8] the following is noted: in vivo.
The conditions of data set [9]: 21 g/d, 3 months; BMI >25 kg/m2, n=48; relative to maltodextrin control.
For data set [10] the following is noted: 16 g/d × 2 wk v maltodextrin placebo.
The conditions of data set [11]: 8 g/d for 12 months; adolescents, n=97; placebo 1.2.
In data set [12] the test system is anorexic gut peptides (GLP-1 & PYY). The note with it: after 2 weeks of supplementation, relative to maltodextrin placebo.
For data set [13] the following is noted: meta-analysis, 10 trials, n=489; 95% CI 1.8, 0.4.
For data set [14] the following is noted: in vivo. The source holds these as a separate data set.
The subject of data set [15] is lactobacilli and bifidobacteria in the faeces. The note with it: 4.5 g/d for 21 d; healthy and constipated adults.
Test in data set [16]: not given
The source holds these as a separate data set.

Setting [17] is: low pH alone or Maillard reaction conditions.
Where [18] appears, read: 11 RCT, overweight and obese adults.

For short chain FOS [scFOS], for the setting “two separate doses of 0, 5 and 8 g”, the “measures of satiety at breakfast or lunch and food intake during an ad libitum lunch” value is listed as “failed to alter”. The “energy intake over the remainder of the day” value (women consuming the 16 g dose) is listed as “significantly lower”.
Consider inulin, for which, in data set [1], the “energy intake or any of the 6 subjective ratings of hunger between treatments” value is recorded as “no difference”. In addition, in data set [2], the “degradation to di-D-fructose dianhydrides” value was “substantial degradation”. Also, the “decrease in energy intake at an ad libitum lunch” value in [3] was 89.84 kcal. Also, the measures of satiety result in data set [4] was “no effect”. In addition, the “total fat intake and total energy intake on the test day” value in data set [4] (33 males) is listed as “lower”. The prebiotic activity entry in data set [5] (heating at low pH) is recorded as “reduced”; in data set [5] (setting [17]), “stable”. For the same compound, in [6] (animal studies and clinical trial reports), the “treatment-related toxicity, genotoxicity or carcinogenicity” value is “no evidence”. In data set [6] (in vivo), the “detrimental effects on mineral absorption, lipid metabolism or glycaemic control” value is on record as “failed to find evidence”.
`[Cr]` [chromium]: the “mean difference in weight in favour of chromium over placebo” value in [7] (11 RCT, n=866, 95% CI −0.96, −0.03, 137 to 1000 μg/d) was -0.5 kg. Further, in data set [7] (setting [18]), the “BMI or waist to hip circumference” value is given as “no effect” and the percentage body fat result is given as “modest reduction”. Moreover, the “adverse effects in participants” value in data set [7] (disappeared on withdrawal, reappeared on reintroduction) was “watery stools, vertigo, weakness, nausea, vomiting, dizziness and headaches”. Also, in data set [8], the “adverse effects reported by other authors” value is “constipation, decreased appetite and urticaria”.
As for fructooligosaccharides [FOS], the weight change in [9] was −1.03 (SD 0.43) kg. Further, in data set [10], the fullness at dinner result is listed as “increased”; the “prospective food intake at dinner” value was “decreased”; the “reduction in total energy intake over a 24 hour test period” value is 5%; the “satiety at breakfast and dinner” value was “significantly increased”. In addition, the “increase in BMI over 12 months” value in [11] is on record as 0.7 kg/m2. Further, the “release of anorexic gut peptides (GLP-1 & PYY) in response to a test meal” value in data set [12] is “minor transient increases”. Further, in [5] (heating at low pH), the prebiotic activity result is “reduced”. Further, in data set [5] (setting [17]), the prebiotic activity result was “stable”. Further, in [6] (in vivo), the “detrimental effects on mineral absorption, lipid metabolism or glycaemic control” value is reported as “failed to find evidence”; the “single dose at which GI adverse effects (bloating, flatulence and diarrhoea) become evident” value was greater than 20 g/day; the “treatment-related toxicity, genotoxicity or carcinogenicity” value is listed as “no evidence”.
In the case of β-glucan [reference compound], in data set [1], the “energy intake or any of the 6 subjective ratings of hunger between treatments” value is recorded as “no difference”.
chromium picolinate: in data set [13], the “weighted mean difference in weight in favour of chromium picolinate over placebo” value is listed as 1.1 kg.
With glucomannan, the “safety in toxicological and genotoxicity studies” value in data set [14] is recorded as “safe”. In data set [15], the “SOFA fatty acid concentrations in the faeces” value is “increased”; the “proportion of lactobacilli and bifidobacteria in the faeces” value was “increased”. Moreover, the weight loss in data set [16] (9 RCT, n=379, trials averaging 5.2 weeks, 95% CI −1.53, −0.05, 1.24 to 15.1 g/d) is reported as 0.79 kg. Besides, the “weight change in the 3 studies supplying glucomannan in biscuits or granola bars” value in [16] (biscuits or granola bars) is “failed to report any significant weight change”. In addition, in [16] (obese subjects), the “weight loss in obese subjects (mean)” value is listed as −1.30 (−1.69, −0.91) kg.
